Tests used:
[1] = Liver microsome stability, human; details: human liver microsomes, drug 1.00 μM
[2] = Plasma stability, rat; details: drug 1.00 μM
[3] = Liver microsome stability, rat; details: rat liver microsomes, drug 1.00 μM
[4] = Plasma stability, human; details: drug 1.00 μM
[5] = Plasma stability, mouse; details: drug 1.00 μM
[6] = Liver microsome stability, mouse; details: mouse liver microsomes, drug 1.00 μM
[7] = in vitro; details: human
[8] = system: SARS; assay: microbe, parasite or virus in culture; type: cell-based, SARS coronavirus; details: Severe acute respiratory syndrome coronavirus, Vero 76
[9] = system: SARS-CoV-2; assay: microbe, parasite or virus in culture; type: cell-based; details: Severe acute respiratory syndrome coronavirus 2, Calu-3
[10] = system: MERS; assay: microbe, parasite or virus in culture; type: cell-based, Middle East Respiratory Syndrome coronavirus
[11] = system: HCoV-beta OC43; assay: HCoV-beta OC43 antiviral assay; type: cell-based; details: Betacoronavirus 1; strain OC43; RD cells
[12] = system: HCoV-alpha 229E; assay: HCoV-alpha 229E antiviral assay; type: cell-based, HCoV-229E; details: Human coronavirus 229E; strain 229E; Huh-7 cells
[13] = system: Huh-7 cells; assay: Cytotoxicity (CC50) in Huh-7 cells; type: cell-based; details: Huh7, Human, Liver, n = 3
[14] = system: EEEV; assay: microbe, parasite or virus in culture; type: cell-based; details: Eastern equine encephalitis virus, Vero 76
[15] = system: Poliovirus; assay: microbe, parasite or virus in culture; type: cell-based; details: Enterovirus C, Vero 76
[16] = system: MDCK/Gal* cells; assay: Cytotoxicity (CC50) in MDCK/Gal* cells; type: cell-based; details: Canine, Kidney
[17] = system: A549 cells; assay: Cytotoxicity (CC50) in A549 cells; type: cell-based; details: A549, Human, Lung
[18] = system: BHK-T7 cells; assay: Cytotoxicity (CC50) in BHK-T7 cells; type: cell-based; details: BHK-T7, Hamster, Kidney
[19] = system: Pichinde virus; type: cell-based
[20] = system: BEAS-28 cells; assay: Cytotoxicity (CC50) in BEAS-28 cells; type: cell-based; details: BEAS-28, Human, Lung
[21] = Mouse plasma PK, single dose; details: for AUC-INF/Dose / Cmax/Dose: CD-1 mice; for AUC(0-inf) / Cmax / half-life / Tmax: female, ICR (CD-1), mouse, plasma, po
[22] = system: MA-104 cells; assay: Cytotoxicity (CC50) in MA-104 cells; type: cell-based; details: MA-104, Monkey, Kidney, n = 2
[23] = system: H9c2 cells; assay: Cytotoxicity (CC50) in H9c2 cells; type: cell-based; details: H9c2, Rat, Heart
[24] = system: A-204 cells; assay: Cytotoxicity (CC50) in A-204 cells; type: cell-based; details: A204, Human, Muscle
[25] = system: HG23 cells; assay: Cytotoxicity (CC50) in HG23 cells; type: cell-based; details: HG23, Human
[26] = system: Vero cells; details: green monkey
[27] = Ferret plasma PK, single dose; type: in vivo; details: ferrets; for AUC(0-inf) / Cmax / Tmax / half-life: plasma
[28] = system: Measles; assay: Measles antiviral assay; type: cell-based, measles virus; details: Measles morbillivirus; strain CC; Vero 76 cells
[29] = system: Lujo; assay: microbe, parasite or virus in culture; type: cell-based, Lujo virus; details: Mammarenavirus lujoense
[30] = system: MDCK cells; assay: Cytotoxicity (CC50) in MDCK cells; type: cell-based; details: Canine, Kidney, n = 6
[31] = system: Enterovirus-68; assay: Enterovirus-68 antiviral assay; type: cell-based; details: strain US/KY/14-18953; RD cells
[32] = system: RD cells; assay: Cytotoxicity (CC50) in RD cells; type: cell-based, Human; details: RD, Human, Muscle
[33] = Cytotoxicity (CC50) in RD cells; type: cell-based, Human; details: human, RD cells, alongside antiviral assays
[34] = system: RAW264.7 cells; assay: Cytotoxicity (CC50) in RAW264.7 cells; type: cell-based; details: RAW 264.7, Mouse, Macrophage
[35] = system: Junin virus; assay: microbe, parasite or virus in culture; type: cell-based; details: Mammarenavirus juninense
[36] = system: Machupo; assay: microbe, parasite or virus in culture; type: cell-based, Machupo virus; details: Mammarenavirus machupoense
[37] = Guinea pig plasma PK, single dose; type: in vivo; details: Guinea pigs
[38] = system: CEM cells; assay: Cytotoxicity (CC50) in CEM cells; type: cell-based; details: Human, Lymphoid
[39] = system: IEC-6 cells; assay: Cytotoxicity (CC50) in IEC-6 cells; type: cell-based; details: IEC-6, Rat, Small intestine
[40] = system: HBTECs; assay: Cytotoxicity (CC50) in HBTECs; type: cell-based; details: Human, Respiratory Tract
[41] = system: BEAS-28/Gal* cells; assay: Cytotoxicity (CC50) in BEAS-28/Gal* cells; type: cell-based; details: Human, Lung
[42] = system: BxPC-3 cells; assay: Cytotoxicity (CC50) in BxPC-3 cells; type: cell-based; details: BxPC-3, Human, Pancreas
[43] = system: Lassa fever virus; assay: organism not typed; type: cell-based
[44] = Cytotoxicity (CC50) in HeLa cells; type: cell-based; details: human, alongside antiviral assays
[45] = system: HepG2/Gal* cells; assay: Cytotoxicity (CC50) in HepG2/Gal* cells; type: cell-based; details: Human
[46] = system: Mayaro; assay: Mayaro antiviral assay; type: cell-based; details: strain BEAR 505411; Vero 76 cells
[47] = guinea pig, 50 mg/kg PO, plasma

## CC(C)C(=O)OC[C@@]1(F)OC(n2ccc(=O)[nH]c2=O)C(O)[C@@H]1O (stereo partly drawn) [EIDD-2947, [(2S, 3S)-5-(2,4-dioxopyrimidin-1-yl)-2-fluoro-3,4-dihydroxy-tetrahydrofuran-2-yl]methyl 2-methylpropanoate]
[1]
  half-life: 0.733 h

## O=c1ccn([C@@H]2O[C@](F)(COP3(=O)OCc4ccccc4O3)[C@@H](O)[C@H]2O)c(=O)[nH]1 (stereo partly shown) [EIDD-02838]
[2]
  half-life: <1 min
[2]; EIDD-2749 formed
  max [2749]: 0.0341 µM
[3]
  half-life: 8 min
[3]; EIDD-2749 formed
  max [2749]: 0.218 µM
[4]; 37° C
  half-life: 0.2 h
[4]; EIDD-2749 formed
  max [2749]: 0.0521 µM
[5]
  half-life: 1 min
[5]; EIDD-2749 formed
  max [2749]: 0.0216 µM
[6]
  half-life: 7 min
[6]; EIDD-2749 formed
  max [2749]: 0.0347 µM
[1]
  half-life: 0.12 h
[1]; EIDD-2749 formed
  max [2749]: 0.130 µM

## O=c1ccn([C@@H]2O[C@](F)(CO)[C@@H](O)[C@H]2O)c(=O)[nH]1 [EIDD-2749]
[7]
  CC50: > 50000 nM
[8]
  EC50: 14100 nM
[9]
  EC50: 1900 nM
[10]
  EC50: 5700 nM
[10]; Middle East respiratory syndrome-related coronavirus, Vero 76
  EC90: 9500 nM
[11]
  EC50: 1060 nM
  EC90: 2850 nM
[12]
  EC50: 1670 nM
  EC90: 9500 nM

## O=c1ccn([C@@H]2O[C@](F)(CO)[C@@H](O)[C@H]2O)c(=O)[nH]1 [EIDD-02749, 1-[(2R, 3R, 4S, 5S)-5-fluoro-3,4-dihydroxy-5-(hydroxymethyl)tetrahydrofuran-2-yl]pyrimidine-2,4-dione]
[13]
  CC: >400 µM
[14]
  EC90: 1790 nM
[15]
  EC90: 3800 nM
[16]
  CC: 444 µM
[17]
  CC: >400 µM
[18]
  CC: >500 µM
[19]
  EC90: 320 nM
[20]
  CC: >500 µM
[21]; 10 mg/kg IP
  AUC-INF/Dose: 514.5 h*kg*nmol/mL/mmol
  Cmax/Dose: 202.1 kg*nmol/mL/mmol
[21]; 50 mg/kg PO
  AUC-INF/Dose: 1215.0 h*kg*nmol/mL/mmol
  Cmax/Dose: 184.3 kg*nmol/mL/mmol
[21]; 150 mg/kg PO
  AUC-INF/Dose: 685.8 h*kg*nmol/mL/mmol
  Cmax/Dose: 76.2 kg*nmol/mL/mmol
[21]; 500 mg/kg PO
  Cmax/Dose: 39.9 kg*nmol/mL/mmol
[21]; 1.5 mg/kg
  AUC(0-inf): 6.58 µM·h
  Cmax: 1.2 µM
  half-life: 17.9 h
[21]; 5 mg/kg
  AUC(0-inf): 28.6 µM·h
  Cmax: 7.1 µM
  half-life: 15.2 h
[21]; 15 mg/kg
  AUC(0-inf): 86.9 µM·h
  Cmax: 23.3 µM
  half-life: 20.3 h
[21]; 50 mg/kg
  half-life: 8.28 h
[21]; 150 mg/kg
  Tmax: 1 h
  half-life: 8.46 h
[21]; 500 mg/kg
  Tmax: 1 h
[22]
  CC: >380 µM
[23]
  CC: >400 µM
[24]
  CC: >400 µM
[25]
  CC: 100 µM
[26]
  CC: >380 µM
[27]; 15 mg/kg PO
  AUC-INF/Dose: 2691.2 ± 483.7 h*kg*nmol/mL/mmol
  Cmax/Dose: 608.2 ± 114.0 kg*nmol/mL/mmol
  AUC(0-inf): 154 ± 27.6 µM·h
  Cmax: 34.8 ± 6.5 µM
  Tmax: 1 h
  half-life: 5.97 ± 0.35 h
[27]; 50 mg/kg PO
  AUC-INF/Dose: 2166.1 ± 409.8 h*kg*nmol/mL/mmol
  Cmax/Dose: 332.0 ± 57.5 kg*nmol/mL/mmol
  AUC(0-inf): 413 ± 78.1 µM·h
  Cmax: 63.3 ± 10.9 µM
  Tmax: 2.3 ± 1.5 h
  half-life: 4.3 ± 0.8 h
[28]
  EC50: 1060 nM
[29]; HeLa
  EC50: 70 nM
[29]; Huh-7
  EC50: 1320 nM
[29]; Vero C1008
  EC50: 830 nM
[30]
  CC: >380 µM
[31]
  EC90: 1060 nM
[32]
  CC: >380 µM
[33]
  CC50: 228000 nM
[34]
  CC: >100 µM
[35]; HeLa
  EC50: 20 nM
[35]; Huh-7
  EC50: 250 nM
[35]; Vero C1008
  EC50: 80 nM
[36]; HeLa
  EC50: 70 nM
[36]; Huh-7
  EC50: 310 nM
[36]; Vero C1008
  EC50: 1490 nM
[37]; 5 mg/kg IV
  AUC0->∞/Dose: 5639.4 ± 234.2 h · kg · nmol/mL · mmol
  Cmax/Dose: 7525.0 ± 6050.9 kg · nmol/mL · mmol
[37]; 5 mg/kg PO
  AUC0->∞/Dose: 4869.4 ± 841.9 h · kg · nmol/mL · mmol
  Cmax/Dose: 1054.5 ± 118.8 kg · nmol/mL · mmol
  VD: 13.0 ± 1.6 L/kg
[37]; 50 mg/kg PO
  AUC0->∞/Dose: 2923.1 ± 209.6 h · kg · nmol/mL · mmol
  Cmax/Dose: 453.0 ± 51.2 kg · nmol/mL · mmol
  VD: 14.9 ± 1.9 L/kg
[37]; guinea pig, plasma, 5 mg/kg IV
  clearance: 3 mL/min/kg
[37]; guinea pig, 5 mg/kg IV, plasma
  AUC(0-inf): 108 ± 4.5 µM·h
  Cmax: 144 ± 115 µM
  Tmax: 0.083 h
  half-life: 9.3 ± 1.3 h
[37]; guinea pig, 5 mg/kg PO, plasma
  AUC(0-inf): 92.9 ± 16.1 µM·h
  Cmax: 20.1 ± 2.3 µM
  Tmax: 1.3 ± 0.5 h
  half-life: 20.1 ± 2.3 h
[37]; [47]
  AUC(0-inf): 558 ± 39.9 µM·h
  Cmax: 86.4 ± 9.8 µM
  Tmax: 1.8 ± 0.5 h
  half-life: 86.4 ± 9.8 h
[38]
  CC: 107 µM
[39]
  CC: >400 µM
[40]
  CC: >500 µM
[41]
  CC: 250 µM
[42]
  CC: >400 µM
[43]; HeLa
  EC50: 450 nM
[43]; Huh-7
  EC50: 900 nM
[43]; Vero C1008
  EC50: 360 nM
[44]
  CC50: 77000 nM
[45]
  CC: >400 µM
[46]
  EC50: 2810 nM
  EC90: 9500 nM

Source: US20260102422A1, “4'-HALOGEN CONTAINING NUCLEOTIDE AND NUCLEOSIDE THERAPEUTIC COMPOSITIONS AND USES RELATED THERETO” (priority 2019, published 2026)
